Experimental data taken from US20260062422A1 (Halda Therapeutics OpCo, Inc., priority 2022, published 2026).
pKd: −log10 of the molar value.

Legend:
[1] = target: T1, BRD4-BD1 (Homo sapiens, UniProt O60885); assay: bromoKdELECT assay for binding affinity to BRD4-BD1; details: Table 6
T1 construct: made in house; host or cells: T7 phage grown in an E. coli host derived from BL21

[2] = Cellular growth inhibition, T-Rex 293 SC cells with doxycycline (progesterone receptor isoform B induced), Example 45; type: cell-based; details: progesterone receptor isoform B induced with 10 ng/mL doxycycline, 72 hours, CellTiter-Glo 2.0, Table 11
Method: (§1) The following types of cells were prepared for this experiment: (i) a T-Rex 293 cell line having increased expression of progesterone receptor isoform B protein due to exposure to doxycycline and (ii) a T-Rex 293 cell line lacking increased expression of progesterone receptor isoform B protein. Ability of the test compounds to inhibit proliferation of the foregoing cell types was evaluated according to the procedures set forth below.
(§2) The doxycycline-inducible progesterone receptor isoform B protein expressing cell line was established using the following protocol: T-Rex 293 cells were purchased from Invitrogen (Cat #R71007) and transfected using Lipofectamine 2000 with the wild-type progesterone receptor B protein sequence cloned into the pcDNA4/TO vector. Transfected cells were selected using 400 μg/mL Zeocin (Invitrogen Cat #R25001). Following selection, single clones were raised and maintained in Dulbecco's Modified Eagle Medium (DMEM) supplemented with 10% w/w Tetracycline-free fetal bovine serum (FBS) and 250 μg/mL Zeocin. Clones were analyzed for expression of progesterone receptor isoform B protein in the presence and absence of 10 ng/mL doxycycline (Sigma Cat #D9891), and a single doxycycline-inducible clone (hereinafter “SC”) was selected for use in downstream assays.
(§3) The SC cells were seeded on poly-D-lysine coated, black clear-bottom 384-well plates at 2500/well, in 25 μL Phenol Red Free Dulbecco's Modified Eagle Medium (DMEM) supplemented with 10% w/w charcoal-dextran treated fetal bovine serum (FBS) and 1% w/w pen-strep, with or without 10 ng/mL doxycycline. Pen-Strep is a commercially available mixture of penicillin G and streptomycin, which is used in mammalian cell culture media to prevent bacterial contamination. Phenol Red Free Dulbecco's Modified Eagle Medium (DMEM) supplemented with 10% w/w charcoal-dextran treated fetal bovine serum (FBS) and 1% w/w pen-strep, with or without 10 ng/mL doxycycline is herein referred to as Treatment Medium. Following seeding of cells in the plates, the plates were spun at 300×g for 30 seconds, then equilibrated to room temperature for 30 minutes, and then deposited in a humidified tissue culture incubator maintained at 37° C. with 5% CO2.
(§4) At 24 hours after seeding of the cells, dilutions of test compound were prepared in DMSO and dissolved in Treatment Medium, to achieve a final DMSO concentration of 0.5% w/w, thereby providing the Test Compound Solution. A 25 μL aliquot of the Test Compound Solution was added to cells in the well plates. An equal volume of a solution containing DMSO and Treatment Medium was used as a negative control. Following treatment of cells with Test Compound Solution or said equal volume of a solution containing DMSO and Treatment Medium, the plates were spun at 300×g for 30 seconds, and then left in an incubator for 72 hours.
(§5) At the end of the treatment duration, cell viability was quantified with CellTiter-Glo 2.0 reagent (Promega Cat #G9243). For this purpose, plates were equilibrated to room temperature for 30 minutes, and then 25 μL of CellTiter-Glo 2.0 reagent was added to cells in the plate wells. Plates were then agitated on a shaker for two minutes at 500 rpm and subsequently incubated at room temperature for 10 minutes. Following incubation, the plates were spun at 3000×g for 30 seconds, then sealed with an optical adhesive cover, and luminescence readings were measured with an EnVision Plate Reader (Perkin Elmer).
(§6) Data was normalized using zero luminescence for baseline. A four-parameter non-linear regression curve fit was applied to dose-response data in GraphPad Prism data analysis software to determine the half-maximal growth inhibitory concentration (GI50) for each test compound.

[3] = system: T-Rex 293 cell line SC cells lacking increased expression of progesterone receptor isoform B protein; assay: Cellular growth inhibition, T-Rex 293 SC cells without doxycycline, Example 45; type: cell-based; details: T-Rex 293 SC cells not exposed to doxycycline, 72 hours treatment, CellTiter-Glo 2.0
Method: as §1, §2, §3, §4, §5, §6

SMILES	pKd [1]	GI50 [2] [µM]	GI50 [3] [µM]
Cc1sc2c(c1C)C(c1ccc(Cl)cc1)=N[C@@H](CC(=O)NCCOCCOCCOCCOCCOC1CCN(c3ncc(C(=O)N[C@H]4C(C)(C)[C@H](Oc5ccc(C#N)c(Cl)c5)C4(C)C)cn3)CC1)c1nnc(C)n1-2 [Compound I-8]	5.60 to 6.30	< 0.5	0.5 to 1.5
CCNC(=O)C[C@@H]1N=C(c2ccc(N3CCN(CC4CCN(c5ncc(C(=O)N[C@H]6C(C)(C)[C@H](Oc7ccc(C#N)c(Cl)c7)C6(C)C)cn5)CC4)CC3)cc2)c2c(sc(C)c2C)-n2c(C)nnc21 [Compound I-105, N-[3-(3-chloro-4-cyano-phenoxy)-2,2,4,4-tetramethyl-cyclobutyl]-2-[4-[[4-[4-[(9S)-9-[2-(ethylamino)-2-oxo-ethyl]-4,5,13-trimethyl-3-thia-1,8,11,12-tetrazatricyclo[8.3.0.02,6]trideca-2(6),4,7,10,12-pentaen-7-yl]phenyl]piperazin-1-yl]methyl]-1-piperidyl]pyrimidine-5-carboxamide]	6.30 to 7.30	< 0.5	< 0.5
Cc1sc2c(c1C)C(c1ccc(CCCOC3CCN(c4ncc(C(=O)N[C@H]5C(C)(C)[C@H](Oc6ccc(C#N)c(Cl)c6)C5(C)C)cn4)CC3)cc1)=N[C@@H](C)c1nnc(C)n1-2 [Compound I-228, N-[3-(3-chloro-4-cyano-phenoxy)-2,2,4,4-tetramethyl-cyclobutyl]-2-[4-[3-[4-[(9S)-4,5,9,13-tetramethyl-3-thia-1,8,11,12-tetrazatricyclo [8.3.0.02,6]trideca-2(6),4,7,10,12-pentaen-7-yl]phenyl]propoxy]-1-piperidyl]pyrimidine-5-carboxamide]	5.60 to 6.30	< 0.5	0.5 to 1.5
Cc1sc2c(c1C)C(c1ccc(OCCOC3CCN(c4ncc(C(=O)N[C@H]5C(C)(C)[C@H](Oc6ccc(C#N)c(Cl)c6)C5(C)C)cn4)CC3)cc1)=N[C@@H](CC(=O)OC(C)(C)C)c1nnc(C)n1-2 [Compound I-235, tert-butyl 2-((S)-4-(4-(2-((1-(5-(((1r,3r)-3-(3-chloro-4-cyanophenoxy)-2,2,4,4-tetramethylcyclobutyl)carbamoyl)pyrimidin-2-yl)piperidin-4-yl)oxy)ethoxy)phenyl)-2,3,9-trimethyl-6H-thieno[3,2-f][1,2,4]triazolo[4,3-a][1,4]diazepin-6-yl)acetate]	< 5.60	< 0.5	< 0.5
Cc1sc2c(c1C)C(c1ccc(Cl)cc1)=N[C@@H](CC(=O)NCCOCCOCCOCCOCCN(C)c1ncc(C(=O)N[C@H]3C(C)(C)[C@H](Oc4ccc(C#N)c(Cl)c4)C3(C)C)cn1)c1nnc(C)n1-2 [Compound I-3, N-((1r,3r)-3-(3-chloro-4-cyanophenoxy)-2,2,4,4-tetramethylcyclobutyl)-2-((1-((S)-4-(4-chlorophenyl)-2,3,9-trimethyl-6H-thieno[3,2-f][1,2,4]triazolo[4,3-a][1,4]diazepin-6-yl)-2-oxo-6,9,12,15-tetraoxa-3-azaheptadecan-17-yl)(methyl)amino)pyrimidine-5-carboxamide]	6.30 to 7.30	< 0.5	1.5 to 3
Cc1sc2c(c1C)C(c1ccc(Cl)cc1)=N[C@@H](CC(=O)NCCOCCOCCOC1CCN(c3ncc(C(=O)N[C@H]4C(C)(C)[C@H](Oc5ccc(C#N)c(Cl)c5)C4(C)C)cn3)CC1)c1nnc(C)n1-2 [Compound I-7]	5.60 to 6.30	< 0.5	< 0.5
CCNC(=O)C[C@@H]1N=C(c2ccc(OCCOC3CCN(c4ncc(C(=O)N[C@H]5C(C)(C)[C@H](Oc6ccc(C#N)c(Cl)c6)C5(C)C)cn4)CC3)cc2)c2c(sc(C)c2C)-n2c(C)nnc21 [Compound I-60, N-((1r,3r)-3-(3-chloro-4-cyanophenoxy)-2,2,4,4-tetramethylcyclobutyl)-2-(4-(2-(4-((S)-6-(2-(ethylamino)-2-oxoethyl)-2,3,9-trimethyl-6H-thieno[3,2-f][1,2,4]triazolo[4,3-a][1,4]diazepin-4-yl)phenoxy)ethoxy)piperidin-1-yl)pyrimidine-5-carboxamide]	6.30 to 7.30	< 0.5	< 0.5
COCC[C@@H]1N=C(c2ccc(CCCOC3CCN(c4ncc(C(=O)N[C@H]5C(C)(C)[C@H](Oc6ccc(C#N)c(Cl)c6)C5(C)C)cn4)CC3)cc2)c2c(sc(C)c2C)-n2c(C)nnc21 [Compound I-227, N-[3-(3-chloro-4-cyano-phenoxy)-2,2,4,4-tetramethyl-cyclobutyl]-2-[4-[3-[4-[(9S)-9-(2-methoxyethyl)-4,5,13-trimethyl-3-thia-1,8,11,12-tetrazatricyclo[8.3.0.02,6]trideca-2(6),4,7,10,12-pentaen-7-yl]phenyl]propoxy]-1-piperidyl]pyrimidine-5-carboxamide]	< 5.60	< 0.5	0.5 to 1.5
Cc1sc2c(c1C)C(c1ccc(Cl)cc1)=N[C@H](CC(=O)NCCOCCOCCOCCOCCOCCOCCOC1CCN(c3ncc(C(=O)N[C@H]4C(C)(C)[C@H](Oc5ccc(C#N)c(Cl)c5)C4(C)C)cn3)CC1)c1nnc(C)n1-2 [Compound I-9]	5.60 to 6.30	< 0.5	1.5 to 3
Cc1sc2c(c1C)C(c1ccc(Cl)cc1)=N[C@@H](CC(=O)NCCOC1CCN(c3ncc(C(=O)N[C@H]4C(C)(C)[C@H](Oc5ccc(C#N)c(Cl)c5)C4(C)C)cn3)CC1)c1nnc(C)n1-2 [Compound I-6]	< 5.60	< 0.5	< 0.5
Cc1sc2c(c1C)C(c1ccc(Cl)cc1)=N[C@@H](CC(=O)NCCN(C)c1ncc(C(=O)N[C@H]3C(C)(C)[C@H](Oc4ccc(C#N)c(Cl)c4)C3(C)C)cn1)c1nnc(C)n1-2 [Compound I-1, N-[3-(3-chloro-4-cyano-phenoxy)-2,2,4,4-tetramethyl-cyclobutyl]-2-[2-[[2-[(9S)-7-(4-chlorophenyl)-4,5,13-trimethyl-3-thia-1,8,11,12-tetrazatricyclo[8.3.0.02,6]trideca-2(6),4,7,10,12-pentaen-9-yl]acetyl]amino]ethyl-methyl-amino]pyrimidine-5-carboxamide]	6.30 to 7.30	–	–
Cc1sc2c(c1C)C(c1ccc(Cl)cc1)=N[C@@H](CC(=O)NCCCN1CCN(CCCOC3CCN(c4ncc(C(=O)N[C@H]5C(C)(C)[C@H](Oc6ccc(C#N)c(Cl)c6)C5(C)C)cn4)CC3)CC1)c1nnc(C)n1-2 [Compound I-10]	6.30 to 7.30	–	–
Cc1sc2c(c1C)C(c1ccc(CCCOC3CCN(c4ncc(C(=O)N[C@H]5C(C)(C)[C@H](Oc6ccc(C#N)c(Cl)c6)C5(C)C)cn4)CC3)cc1)=N[C@@H](Cc1ncco1)c1nnc(C)n1-2 [Compound I-131, N-[3-(3-chloro-4-cyano-phenoxy)-2,2,4,4-tetramethyl-cyclobutyl]-2-[4-[3-[4-[(9S)-4,5,13-trimethyl-9-(oxazol-2-ylmethyl)-3-thia-1,8,11,12-tetrazatricyclo[8.3.0.02,6]trideca-2(6),4,7,10,12-pentaen-7-yl]phenyl]propoxy]-1-piperidyl]pyrimidine-5-carboxamide]	< 5.60	< 0.5	< 0.5
Cc1sc2c(c1C)C(c1ccc(Cl)cc1)=N[C@@H](CC(=O)NCCOCCOCCOCC1CCN(c3ncc(C(=O)N[C@H]4C(C)(C)[C@H](Oc5ccc(C#N)c(Cl)c5)C4(C)C)cn3)CC1)c1nnc(C)n1-2 [Compound I-17]	6.30 to 7.30	–	–
CCN(C)C(=O)C[C@@H]1N=C(c2ccc(CCCOC3CCN(c4ncc(C(=O)N[C@H]5C(C)(C)[C@H](Oc6ccc(C#N)c(Cl)c6)C5(C)C)cn4)CC3)cc2)c2c(sc(C)c2C)-n2c(C)nnc21 [Compound I-101]	< 5.60	–	–
CCNC(=O)C[C@@H]1N=C(c2ccc(OCC3CN(c4ncc(C(=O)N[C@H]5C(C)(C)[C@H](Oc6ccc(C#N)c(Cl)c6)C5(C)C)cn4)C3)cc2)c2c(sc(C)c2C)-n2c(C)nnc21 [Compound I-71]	6.30 to 7.30	–	–
